Values quoted from earlier work, collected in patent publication US20240024253A1, “Continuous Drug Delivery Systems and Methods” (Pike Therapeutics Inc., priority 2022, published 2024).

Experiments:
CB1 cannabinoid receptor = settings: parameter not named at the place
CB2 cannabinoid receptor = CB2 cannabinoid receptor (Homo sapiens, UniProt P34972); settings: CB2 versus CB1
Chain of CB2 cannabinoid receptor (P34972 whole entry): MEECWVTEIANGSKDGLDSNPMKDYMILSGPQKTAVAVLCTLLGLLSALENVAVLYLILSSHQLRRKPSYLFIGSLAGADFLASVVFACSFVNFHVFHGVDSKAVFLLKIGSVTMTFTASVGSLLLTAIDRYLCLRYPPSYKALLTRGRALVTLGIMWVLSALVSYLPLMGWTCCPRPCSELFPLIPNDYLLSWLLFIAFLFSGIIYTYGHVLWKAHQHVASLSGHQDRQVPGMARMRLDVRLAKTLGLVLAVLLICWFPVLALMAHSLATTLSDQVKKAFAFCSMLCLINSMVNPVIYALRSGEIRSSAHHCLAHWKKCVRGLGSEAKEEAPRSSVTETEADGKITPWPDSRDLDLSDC

CCCCCn1cc(Cc2cccc3ccccc23)c2ccccc21 [JWH-175, (1-pentylindol-3-yl)naphthalen-1-ylmethane]
Ki (CB1 cannabinoid receptor): 22 nM

CCCCCCC(C)(C)c1cc(OC)c2c(c1)OC(C)(C)C1CCC(O)CC21 (stereo not drawn) [JWH-350, 11-nor-1-methoxy-3-(1′,1′-dimethylheptyl)-9α-hydroxyhexahydrocannabinol]
selectivity for CB2 receptor (CB2 cannabinoid receptor): 33 fold

CCCn1cc(C(=O)c2ccc(C)c3ccccc23)c2ccccc21 [JWH-120]
selectivity for CB2 receptor (CB2 cannabinoid receptor): 173 fold

CCCCCCC(C)(C)c1cc(O)c2c(c1)oc(=O)c1ccc(OC)cc12 [AM-1710]
selectivity / binding strength CB2 over CB1 (CB2 cannabinoid receptor): 54 ×

CCCn1c(C)c(C(=O)c2ccc(C)c3ccccc23)c2ccccc21 [JWH-148]
selectivity for CB2 over the CB1 subtype (CB2 cannabinoid receptor): more than 8 times
